Columns and labels:
Type in all cases: cell-based, human
[1] = test system: extract-stimulated PBMC cultures from allergic donors; assay: IL-5 plus IFN-γ ELISPOT of Bla g extract-expanded PBMC; conditions: share of the region in the total Bla g peptide response (total SFC)
[2] = test system: extract-stimulated PBMC cultures from allergic donors (IL-5 production); assay: IL-5 ELISPOT of in vitro expanded PBMC; conditions: donor U00023 (Figure 3), result in words
[3] = test system: extract-stimulated PBMC cultures from allergic donors (IFN-γ production); assay: IFN-γ ELISPOT of in vitro expanded PBMC; conditions: donor U00023 (Figure 3), result in words

Sequence | % Total response [1] [%] | IL-5 response [2] | IFN-γ response [3]
PEQIQLLKKAFDAFD [Region 23] | 5.1 | associated only with IL-5 production | –
ISDFRAAIANYHYDA [Region 13] | 8.6 | – | –
GNQNFLTVFDSTSCN [Region 7] | 0.2 | no IL-5 | produced IFN-γ
FAVATITHAAELQRV [Region 5] | 3.5 | no IL-5 | produced IFN-γ

— article PMC3392449 (Journal of Immunology (Baltimore, Md. : 1950), 2012)
